According to patent EP2818471A1, “Nitrogen bicyclic compounds as inhibitors for Scyl1 and Grk5” (Max-Planck-Gesellschaft zur Förderung der Wissenschaften …, priority 2013, dated 2014):

The compounds below were run on beta-TC6 cells (assay: Insulin HTRF assay, relative activity Ar normalized to sunitinib). Settings: Mus musculus, normalized to positive control sunitinib (5 µM = 100%), Table 10.
Type: cell-based
Description: For further screening of compounds derived from compounds described above for their ability to regulate insulin release an insulin HTRF® (Homogeneous Time-Resolved Fluorescence; Cisbio International, France) was used. This assay is based on two antibodies against insulin binding to different epitopes of insulin. One of these antibodies is coupled to Europium (Ab-Eu-Cryptate) and the other one to the fluorophore XL665 (Ab-XL665). Is insulin secreted into the supernatant of cell culture both antibodies can bind to insulin and come therefore into close proximity which allows upon excitation that energy transfer between (FRET) the long-life fluorescent donor Europium (cryptate) and the acceptors XL665. FRET increases proportionally with insulin concentration.
The automated assay protocol is as follows: • On day 1 15k beta-TC6 cells per well were seeded for 24 or 48 h in 50 µl complete medium. On day 2 or respective on day 3 the medium is removed and cells are washed with 60 µl 1xPBS and 20 µl induction buffer is added using BioTek washer. Subsequently, 10 µl Sunitininb (5 µM f.c.) or the test compound in induction buffer; 0.5% f.c. DMSO (CyBi-well) is transferred to the cells. The cells are then incubated at 37°C for 2, 3, 4h.
The HTRF assay is carried out using Greiner 384-well 784075 assay plates. First 10 µl supernatant is transferred from the cell plates in HTRF plates (CyBi-well). 10 µl of 0, 1, 2, and 4 ng/ml Insulin standard controls in assay medium is used as a control. To each well 10 µl of combined 1:25 Ab-XL665 (Acc) and 1:20 Ab-Eu-Cryptate (WellMate) are added and incubated for 120 min at RT in the dark. Finally HTRF is measured on ViewLux ultra high throughput microplate imager (PerkinElmer).
The evaluation software DataFactoty derives relative activities Ar according to the following equation: Ar = (V-R(0%control))/(R(100%control) -R(0%control)) × 100 [formula] […]
The activity of the compounds was classified according to their Ar (relative activity) into the following ranges: Ar ≥ 100% + + + +; 50% ≤ Ar < 100% + + +; 20% ≤ Ar < 50% + +; 10% < Ar < 20% + [formula] Table 10. Ar (relative activity) values of inventive compounds

`Brc1cnc2ccc(NCCCN3CCOCC3)nn12` [compound 44, 3-bromo-N-(3-morpholinopropyl)imidazo[1,2-b]pyridazin-6-amine] and `CNc1ccc2ncc(/C=C\CCCO)n2n1` [compound 59, (Z)-5-[6-(methylamino)imidazo[1,2-b]pyridazin-3-yl]pent-4-en-1-ol] fall in the same range of Emax: 10 to 20% for the first, 10 to 20% for the second.

`COc1ccc(-c2cnc3ccc(N[C@H](CO)C(C)C)nn23)c(OC)c1` [compound 46, (2S)-2-[[3-(2,4-dimethoxyphenyl)imidazo[1,2-b]pyridazin-6-yl]amino]-3-methyl-butan-1-ol] and `COc1ccc(-c2cnc3ccc(NCc4ccccn4)nn23)cc1OC` [compound 47, 3-(3,4-dimethoxyphenyl)-N-(2-pyridylmethyl)imidazo[1,2-b]pyridazin-6-amine] fall in the same range of Emax: 20 to 50% for the first, 20 to 50% for the second.

`COc1cc(CNc2ccc3ncc(-c4ccc(N(C)C)cc4)n3n2)cc(OC)c1OC` [compound 49, 3-(4-dimethylaminophenyl)-N-[(3,4,5-trimethoxyphenyl)methyl]imidazo[1,2-b]pyridazin-6-amine] and `COc1cc(-c2ccc3ncc(-c4ccc(F)c(Cl)c4)n3n2)cc(OC)c1OC` [compound 114, 3-(3-chloro-4-fluoro-phenyl)-6-(3,4,5-trimethoxyphenyl)imidazo[1,2-b]pyridazine] fall in the same range of Emax: 10 to 20% for the first, 10 to 20% for the second.

Compared with `COc1ccc(-c2cnc3ccc(NCC4CC4)nn23)cn1` [compound 51, N-(cyclopropylmethyl)-3-(6-methoxy-3-pyridyl)imidazo[1,2-b]pyridazin-6-amine], `CNc1ccc2ncc(-c3ccccc3O)n2n1` [compound 60, 2-[6-(methylamino)imidazo[1,2-b]pyridazin-3-yl]phenol] is higher in Emax: 10 to 20% for the first, 20 to 50% for the second.

`Cc1ccc(CNc2ccc3ncc(-c4ccc(O)cc4)n3n2)c(C)c1` [compound 52, 4-[6-[(2,4-dimethylphenyl)methylamino]imidazo[1,2-b]pyridazin-3-yl]phenol] and `Cc1ccc(CNc2ccc3ncc(-c4ccc(C(=O)NCCN(C)C)cc4)n3n2)c(C)c1` [compound 54, N-(2-dimethylaminoethyl)-4-[6-[(2,4-dimethylphenyl)methylamino]imidazo[1,2-b]pyridazin-3-yl]benzamide] fall in the same range of Emax: 20 to 50% for the first, 20 to 50% for the second.

First: CNc1ccc2ncc(-c3cccc(C(=O)N(C)C)c3)n2n1 [compound 61, N,N-dimethyl-3-[6-(methylamino)imidazo[1,2-b]pyridazin-3-yl]benzamide]
Second: CC(=O)Nc1cccc(-c2cnc3ccc(-c4cccnc4)nn23)c1 [compound 109, N-[3-[6-(3-pyridyl)imidazo[1,2-b]pyridazin-3-yl]phenyl]acetamide]
The Emax of the first is higher: 20 to 50% for the first, 10 to 20% for the second.

`CN1CCN(c2ccc(-c3cnc4cccnn34)cn2)CC1` [compound 69, 3-[6-(4-methylpiperazin-1-yl)-3-pyridyl]imidazo[1,2-b]pyridazine] and `c1cnn2c(-c3ccc4c(c3)CCO4)cnc2c1` [compound 80, 3-(2,3-dihydrobenzofuran-5-yl)imidazo[1,2-b]pyridazine] fall in the same range of Emax: 10 to 20% for the first, 10 to 20% for the second.

`CSc1ccc(-c2cnc3cccnn23)cc1` [compound 72, 3-(4-methylsulfanylphenyl)imidazo[1,2-b]pyridazine] and `CC(=O)c1ccc(-c2cnc3cccnn23)cc1` [compound 87, 1-(4-imidazo[1,2-b]pyridazin-3-ylphenyl)ethanone] fall in the same range of Emax: 10 to 20% for the first, 10 to 20% for the second.

Compared with `C(=C\c1cnc2cccnn12)/c1ccccc1` [compound 74, 3-[(E)-styryl]imidazo[1,2-b]pyridazine], `CSc1ccccc1-c1cnc2cccnn12` [compound 86, 3-(2-methylsulfanylphenyl)imidazo[1,2-b]pyridazine] is higher in Emax: 20 to 50% for the first, 50 to 100% for the second.

`CCOc1cccc(-c2cnc3cccnn23)c1` [compound 76, 3-(3-ethoxyphenyl)imidazo[1,2-b]pyridazine] and `CCOc1ccc(-c2cnc3cccnn23)cc1` [compound 85, 3-(4-ethoxyphenyl)imidazo[1,2-b]pyridazine] fall in the same range of Emax: 10 to 20% for the first, 10 to 20% for the second.

`Cc1cc(-c2cnc3cccnn23)cc(C)c1O` [compound 77, 4-imidazo[1,2-b]pyridazin-3-yl-2,6-dimethyl-phenol] and `Cc1cccc(-c2cnc3cccnn23)c1` [compound 84, 3-(m-tolyl)imidazo[1,2-b]pyridazine] fall in the same range of Emax: 10 to 20% for the first, 10 to 20% for the second.

`O=C(NCCO)c1ccc(-c2cnc3cccnn23)cc1` [compound 78, N-(2-hydroxyethyl)-4-imidazo[1,2-b]pyridazin-3-yl-benzamide] and `O=C(NC1CC1)c1ccc(-c2cnc3cccnn23)cc1` [compound 89, N-cyclopropyl-4-imidazo[1,2-b]pyridazin-3-yl-benzamide] fall in the same range of Emax: 10 to 20% for the first, 10 to 20% for the second.

First: N#Cc1cccc(-c2cnc3cccnn23)c1 [compound 82, 3-imidazo[1,2-b]pyridazin-3-ylbenzonitrile]
Second: CS(=O)(=O)Nc1ccc(-c2cnc3cccnn23)cc1 [compound 96, N-(4-imidazo[1,2-b]pyridazin-3-ylphenyl)methanesulfonamide]
The Emax of the first is higher: 20 to 50% for the first, 10 to 20% for the second.

`NC(=O)c1ccc(-c2ccc3ncc(-c4ccccc4)n3n2)cc1` [compound 100, 4-(3-phenylimidazo[1,2-b]pyridazin-6-yl)benzamide] and `NC(=O)c1ccc(-c2ccc3ncc(-c4cccc(OC(F)(F)F)c4)n3n2)cc1` [compound 117, 4-[3-[3-(trifluoromethoxy)phenyl]imidazo[1,2-b]pyridazin-6-yl]benzamide] fall in the same range of Emax: 20 to 50% for the first, 20 to 50% for the second.

`c1ccc(-c2ccc3ncc(-c4ccc5c(c4)OCO5)n3n2)cc1` [compound 101, 3-(1,3-benzodioxol-5-yl)-6-phenyl-imidazo[1,2-b]pyridazine] and `Fc1cccc(-c2ccc3ncc(-c4ccc5c(c4)OCO5)n3n2)c1` [compound 104, 3-(1,3-benzodioxol-5-yl)-6-(3-fluorophenyl)imidazo[1,2-b]pyridazine] fall in the same range of Emax: 20 to 50% for the first, 20 to 50% for the second.

`CS(=O)(=O)Nc1cccc(-c2ccc3ncc(-c4ccncc4)n3n2)c1` [compound 105, N-[3-[3-(4-pyridyl)imidazo[1,2-b]pyridazin-6-yl]phenyl]methanesulfonamide] and `Nc1cccc(-c2ccc3ncc(-c4cccc(Cl)c4)n3n2)c1` [compound 123, 3-[3-(3-chlorophenyl)imidazo[1,2-b]pyridazin-6-yl]an iline] fall in the same range of Emax: 20 to 50% for the first, 20 to 50% for the second.

`OCc1ccc(-c2ccc3ncc(-c4cccnc4)n3n2)cc1` [compound 106, [4-[3-(3-pyridyl)imidazo[1,2-b]pyridazin-6-yl]phenyl]methanol] and `c1cncc(-c2cnc3ccc(-c4ccoc4)nn23)c1` [compound 107, 6-(3-furyl)-3-(3-pyridyl)imidazo[1,2-b]pyridazine] fall in the same range of Emax: 20 to 50% for the first, 20 to 50% for the second.

Compared with `c1cncc(-c2cnc3ccc(-c4cccs4)nn23)c1` [compound 108, 3-(3-pyridyl)-6-(2-thienyl)imidazo[1,2-b]pyridazine], `COc1cccc(-c2ccc3ncc(-c4cccc(Cl)c4)n3n2)c1` [compound 126, 3-(3-chlorophenyl)-6-(3-methoxyphenyl)imidazo[1,2-b]pyridazine] is lower in Emax: 20 to 50% for the first, 10 to 20% for the second.

Compared with `COc1ccccc1-c1ccc2ncc(-c3ccc(F)c(Cl)c3)n2n1` [compound 113, 3-(3-chloro-4-fluoro-phenyl)-6-(2-methoxyphenyl)imidazo[1,2-b]pyridazine], `COc1ccccc1-c1ccc2ncc(-c3cccc(OC(F)(F)F)c3)n2n1` [compound 115, 6-(2-methoxyphenyl)-3-[3-(trifluoromethoxy)phenyl]imidazo[1,2-b]pyridazine] is lower in Emax: 20 to 50% for the first, 10 to 20% for the second.

First: CS(=O)(=O)c1ccc(-c2cnc3ccc(Cc4ccccc4)nn23)cc1 [compound 119, 6-benzyl-3-(4-methylsulfonylphenyl)imidazo[1,2-b]pyridazine]
Second: COc1cncc(-c2cnc3ccc(Cc4ccc(F)cc4)nn23)c1 [compound 122, 6-[(4-fluorophenyl)methyl]-3-(5-methoxy-3-pyridyl)imidazo[1,2-b]pyridazine]
The Emax of the first is lower: 10 to 20% for the first, 20 to 50% for the second.

First: COc1ccc(-c2ccc3ncc(-c4cccc(Cl)c4)n3n2)cc1OC [compound 124, 3-(3-chlorophenyl)-6-(3,4-dimethoxyphenyl)imidazo[1,2-b]pyridazine]
Second: COc1ccc(-c2ccc3ncc(-c4cccc(Cl)c4)n3n2)c(C)c1 [compound 125, 3-(3-chlorophenyl)-6-(4-methoxy-2-methyl-phenyl)imidazo[1,2-b]pyridazine]
The Emax of the first is higher: 20 to 50% for the first, 10 to 20% for the second.

First: Oc1cccc(-c2cnc3ccc(-c4ccc(F)cc4)nn23)c1 [compound 127, 3-[6-(4-fluorophenyl)imidazo[1,2-b]pyridazin-3-yl]phenol]
Second: Oc1cccc(-c2cnc3ccc(-c4cccc5ncccc45)nn23)c1 [compound 128, 3-[6-(5-quinolyl)imidazo[1,2-b]pyridazin-3-yl]phenol]
The Emax of the first is higher: 20 to 50% for the first, 10 to 20% for the second.
